Legend:
[1] = tested on: HeLa cervical cancer cells; experiment: alamarBlue cell viability assay; details: Homo sapiens, 24 h
[2] = tested on: Ramos BL cell line; experiment: alamarBlue cell viability assay; format: cell-based; details: Homo sapiens, 24 h
Description: (§1) Cells were seeded at a density of 2.5 × 10^4 cells/well (MCF-7, MDA-MB-231 cells), 1 × 10^4 cells/well (HL-60 cells), 1–5 × 10^4 cells per well (BL MUTU-I, DG-75 cells) and 2 × 10^5 cells/well [HG-3, PGA-1 (CLL cells)], Ramos, BJAB (BL cells) (200 μL per well), in 96-well plates. Cells were treated with the desired drug concentration for the appropriate time for each cell type, and the samples were incubated as required. alamarBlue (20 μL) was then added to each well and the samples further incubated in the dark at 37 °C for 4 h. Wells containing only reagent and cell culture medium in the absence of cells were used as blank controls. Ethanol was used as a vehicle, and cells were treated with 1% ethanol (v/v) in all experiments. The 96-well plates were analysed on a fluorescence plate reader (SpectraMax Gemini, Molecular Devices) (emission and excitement wavelengths of 590 nm and 544 nm, respectively), and the fluorescence was recorded. The decrease in cell viability was then calculated with reference to the vehicle samples (100% viability). EMEM medium with the addition of alamarBlue was used as a blank. Vehicle-treated cells were considered to be 100% viable, and the viabilities of each compound was calculated accordingly. […] All biochemical assays were performed in triplicate on at least three independent occasions, and the mean values were determined.

[3] = tested on: Bjab BL cell line; experiment: alamarBlue cell viability assay; format: cell-based; details: Homo sapiens, 24 h
Description: as §1

[4] = tested on: DG-75 cells; parameters: method as in earlier work; details: nitrostyrenes and taxol, MTT assay, reported data; cited from earlier work
[5] = tested on: MUTU-1 cells; parameters: method as in earlier work; details: nitrostyrenes and taxol, MTT assay, reported data; cited from earlier work
[6] = tested on: MUTU-I Burkitt’s lymphoma cell line; details: nitrostyrenes, 24 h, cited from earlier work
[7] = tested on: HL-60 promyelocytic leukaemia cells; experiment: alamarBlue cell viability assay; details: Homo sapiens, HL-60, 24 h
[8] = tested on: MCF-7 human breast cancer cells; experiment: alamarBlue cell viability assay; details: MCF7, 72 h
[9] = tested on: DG-75 Burkitt’s lymphoma cell line; details: nitrostyrenes, 1 µM, 48 h; cited from earlier work

With `C/C(=C\c1cccc(Cl)c1)[N+](=O)[O-]` [Compound 11h] the viability at 1 µM ([1]; read-out: % Viable Cells Remaining HeLa 24 h 1 µM) was 90.6%, the viability at 10 µM ([1]; read-out: % Viable Cells Remaining HeLa 24 h 10 µM) was 23.2% and the viability at 1 µM ([2]; read-out: % Viable Cells Remaining Ramos 24 h 1 µM) was 27.2%. It also gave a viability at 10 µM ([2]; read-out: % Viable Cells Remaining Ramos 24 h 10 µM) of 5.1%, a viability at 1 µM ([3]; read-out: % Viable Cells Remaining Bjab 24 h 1 µM) of 90.1% and a viability at 10 µM ([3]; read-out: % Viable Cells Remaining Bjab 24 h 10 µM) of 46.2%. For the same molecule, the IC50 [4] was 2250 nM, the IC50 [5] was 880 nM and the “% Viable Cells Remaining MUTU-1 24 h 1 µM” value ([6]; 1 µM) was 39.80%. The “% Viable Cells Remaining MUTU-1 24 h 10 µM” value ([6]; 10 µM) was 10.28%, the viability at 1 µM ([7]; read-out: % Viable Cells Remaining HL60 24 h 1 µM) was 78.2% and the viability at 10 µM ([7]; read-out: % Viable Cells Remaining HL60 24 h 10 µM) was 6.8%. For the same molecule, the viability at 1 µM ([8]; read-out: % Viable Cells Remaining MCF-7 72 h 1 µM) was 94.3%, the viability at 10 µM ([8]; read-out: % Viable Cells Remaining MCF-7 72 h 10 µM) was 29.7% and the “% Viable Cells Remaining DG-75 48 h 1 µM” value [9] was 84.50%.

Source: publication PMC10746112, “Synthesis and Pro-Apoptotic Effects of Nitrovinylanthracenes and Related Compounds in Chronic Lymphocytic Leukaemia (CLL) and Burkitt’s Lymphoma (BL)” (Molecules, 2023)
